Reference: patent US8952024B2, “Herbicidal pyrimidone derivatives” (E I du Pont de Nemours and Company, priority 2009, dated 2015)

How the values were obtained:
[1] = test system: naked crabgrass (Digitaria nuda); experiment: Test D pre-/postemergence plant response; format: in vivo
Outline: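 Seeds were sown in a loam–sand blend and sprayed preemergence with compound in a non-phytotoxic solvent mixture containing surfactant; plants at 2–18 cm (1- to 4-leaf stage) received the same formulation postemergence. After 14 to 21 days in a greenhouse, injury was rated visually against untreated controls (0 = no effect, 100 = complete control).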

[2] = test system: ricefield bulrush (Scirpus mucronatus); experiment: Test E flooded paddy rice and weeds; format: in vivo; conditions: applied to paddy water, 21 days, scale 0 to 100
Outline: (§1)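 Visual ratings (0 = no effect, 100 = complete control), taken 21 days after treatment against untreated pots. Treatment was by application to paddy water kept 3 cm above the soil, at the 2.0 to 2.5-leaf stage. Grown under 30/27° C, 16-hour photoperiod.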

[3] = test system: ducksalad (Heteranthera limosa); experiment: Test E flooded paddy rice and weeds; format: in vivo; conditions: applied to paddy water, 21 days, scale 0 to 100
Outline: as §1

[4] = test system: sedge (smallflower umbrella sedge, Cyperus difformis); experiment: Test E flooded paddy rice and weeds; format: in vivo; conditions: applied to paddy water, 21 days, scale 0 to 100
Outline: as §1

[5] = test system: transplanted rice seedlings (Oryza sativa cv. ‘Japonica—M202’); experiment: Test E flooded paddy rice and weeds; format: in vivo; conditions: applied to paddy water, 21 days, scale 0 to 100
Outline: as §1

[6] = test system: water seeded rice seedlings (Oryza sativa cv. ‘Japonica—M202’); experiment: Test E flooded paddy rice and weeds; format: in vivo; conditions: applied to paddy water, 21 days, scale 0 to 100
Outline: as §1

[7] = test system: field poppy (Papaver rhoeas); experiment: Test C plant response; format: in vivo; conditions: Preemergence, scale 0 to 100
[8] = test system: deadnettle (henbit deadnettle, Lamium amplexicaule); experiment: Test C plant response; format: in vivo; conditions: Preemergence, scale 0 to 100
[9] = test system: kochia (Kochia scoparia); experiment: Test C plant response; format: in vivo; conditions: Preemergence, scale 0 to 100
[10] = test system: wild oat (Avena fatua); experiment: Test C plant response; format: in vivo; conditions: Preemergence, scale 0 to 100
[11] = test system: Russian thistle (Salsola iberica); experiment: Test C plant response; format: in vivo; conditions: Preemergence, scale 0 to 100
[12] = test system: canarygrass (Phalaris minor); experiment: Test C plant response; format: in vivo; conditions: Preemergence, 125 g ai/ha; scale 0 to 100
[13] = test system: wild radish (Raphanus raphanistrum); experiment: Test C plant response; format: in vivo; conditions: Preemergence, scale 0 to 100
[14] = test system: bluegrass (annual bluegrass, Poa annua); experiment: Test C plant response; format: in vivo; conditions: Preemergence, scale 0 to 100
[15] = test system: winter barley (Hordeum vulgare); experiment: Test C plant response; format: in vivo; conditions: Preemergence, scale 0 to 100
[16] = Postemergence, 31 g ai/ha, scale 0 to 100
[17] = Postemergence, 62 g ai/ha, scale 0 to 100 (0 no effect, 100 complete control)
[18] = Postemergence, 125 g ai/ha, scale 0 to 100 (0 no effect, 100 complete control)
[19] = Preemergence, 16 g ai/ha, scale 0 to 100, 0 no effect, 100 complete control
[20] = Preemergence, 31 g ai/ha, scale 0 to 100 (0 no effect, 100 complete control)
[21] = Preemergence, 62 g ai/ha, scale 0 to 100
[22] = Preemergence, 125 g ai/ha, scale 0 to 100
[23] = Postemergence, 16 g ai/ha, scale 0 to 100

## COCCn1c(-c2ccccc2)ncc(C(=O)C2=C(O)CCCC2=O)c1=O [Compound 85]
[1]; [16]
  Plant response rating, Crabgrass, Naked: 50
[1]; [17]
  Plant response rating, Crabgrass, Naked: 75
[1]; [18]
  Plant response rating, Crabgrass, Naked: 80
[1]; [19]
  Plant response rating, Crabgrass, Naked: 0
[1]; [20]
  Plant response rating, Crabgrass, Naked: 95
[1]; [21]
  Plant response rating, Crabgrass, Naked: 95
[1]; [22]
  Plant response rating, Crabgrass, Naked: 98

## COCCn1c(-c2cc(F)cc(F)c2)ncc(C(=O)C2=C(O)C3CCC(C3)C2=O)c1=O (stereo not drawn) [Compound 243, 2-(3,5-difluorophenyl)-5-[(2-hydroxy-4-oxobicyclo[3.2.1]oct-2-en-3-yl)carbonyl]-3-(2-methoxyethyl)-4(3H)-pyrimidinone]
[1]; [21]
  Plant response rating, Crabgrass, Naked: 100
[1]; [22]
  Plant response rating, Crabgrass, Naked: 100
[1]; Preemergence, 250 g ai/ha, scale 0 to 100
  Plant response rating, Crabgrass, Naked: 100

## COc1ccc(-n2c(-c3ccccc3)ncc(C(=O)C3=C(O)CCCC3=O)c2=O)cc1OC [Compound 218]
[2]; 32 g ai/ha
  Plant response rating, Bulrush, Ricefield, Flood: 80
[2]; 64 g ai/ha
  Plant response rating, Bulrush, Ricefield, Flood: 80
[2]; 125 g ai/ha
  Plant response rating, Bulrush, Ricefield, Flood: 90
[2]; 250 g ai/ha
  Plant response rating, Bulrush, Ricefield, Flood: 100
[3]; 32 g ai/ha
  Plant response rating, Ducksalad, Flood: 80
[3]; 64 g ai/ha
  Plant response rating, Ducksalad, Flood: 85
[3]; 125 g ai/ha
  Plant response rating, Ducksalad, Flood: 95
[3]; 250 g ai/ha
  Plant response rating, Ducksalad, Flood: 100
[4]; 32 g ai/ha
  Plant response rating, Sedge, Umbrella, Flood: 85
[4]; 64 g ai/ha
  Plant response rating, Sedge, Umbrella, Flood: 95
[4]; 125 g ai/ha
  Plant response rating, Sedge, Umbrella, Flood: 100
[4]; 250 g ai/ha
  Plant response rating, Sedge, Umbrella, Flood: 100
[5]; 32 g ai/ha
  Plant response rating, Rice, Transplanted, Flood: 0
[5]; 64 g ai/ha
  Plant response rating, Rice, Transplanted, Flood: 0
[5]; 125 g ai/ha
  Plant response rating, Rice, Transplanted, Flood: 0
[5]; 250 g ai/ha
  Plant response rating, Rice, Transplanted, Flood: 10
[6]; 32 g ai/ha
  Plant response rating, Rice, Water Seeded, Flood: 15
[6]; 64 g ai/ha
  Plant response rating, Rice, Water Seeded, Flood: 0
[6]; 125 g ai/ha
  Plant response rating, Rice, Water Seeded, Flood: 20
[6]; 250 g ai/ha
  Plant response rating, Rice, Water Seeded, Flood: 35

## O=C1CCCC(O)=C1C(=O)c1cnc(-c2ccccc2)n(CC2CCCO2)c1=O (stereo not drawn) [Compound 59]
[1]; [16]
  Plant response rating, Crabgrass, Naked: 30
[1]; [17]
  Plant response rating, Crabgrass, Naked: 50
[1]; [18]
  Plant response rating, Crabgrass, Naked: 70
[1]; [23]
  Plant response rating, Crabgrass, Naked: 20
[1]; [19]
  Plant response rating, Crabgrass, Naked: 0
[1]; [20]
  Plant response rating, Crabgrass, Naked: 0
[1]; [21]
  Plant response rating, Crabgrass, Naked: 65
[1]; [22]
  Plant response rating, Crabgrass, Naked: 95

## Cc1ccc(-n2c(-c3ccccc3)ncc(C(=O)C3=C(O)CCCC3=O)c2=O)c(C)c1 [Compound 28]
[2]; 32 g ai/ha
  Plant response rating, Bulrush, Ricefield, Flood: 20
[2]; 64 g ai/ha
  Plant response rating, Bulrush, Ricefield, Flood: 30
[2]; 125 g ai/ha
  Plant response rating, Bulrush, Ricefield, Flood: 35
[2]; 250 g ai/ha
  Plant response rating, Bulrush, Ricefield, Flood: 65
[3]; 32 g ai/ha
  Plant response rating, Ducksalad, Flood: 0
[3]; 64 g ai/ha
  Plant response rating, Ducksalad, Flood: 0
[3]; 125 g ai/ha
  Plant response rating, Ducksalad, Flood: 80
[3]; 250 g ai/ha
  Plant response rating, Ducksalad, Flood: 100
[4]; 32 g ai/ha
  Plant response rating, Sedge, Umbrella, Flood: 0
[4]; 64 g ai/ha
  Plant response rating, Sedge, Umbrella, Flood: 85
[4]; 125 g ai/ha
  Plant response rating, Sedge, Umbrella, Flood: 90
[4]; 250 g ai/ha
  Plant response rating, Sedge, Umbrella, Flood: 100
[5]; 32 g ai/ha
  Plant response rating, Rice, Transplanted, Flood: 0
[5]; 64 g ai/ha
  Plant response rating, Rice, Transplanted, Flood: 15
[5]; 125 g ai/ha
  Plant response rating, Rice, Transplanted, Flood: 15
[5]; 250 g ai/ha
  Plant response rating, Rice, Transplanted, Flood: 15
[6]; 32 g ai/ha
  Plant response rating, Rice, Water Seeded, Flood: 45
[6]; 64 g ai/ha
  Plant response rating, Rice, Water Seeded, Flood: 60
[6]; 125 g ai/ha
  Plant response rating, Rice, Water Seeded, Flood: 65
[6]; 250 g ai/ha
  Plant response rating, Rice, Water Seeded, Flood: 85

## Cc1ccccc1-n1c(-c2ccccc2)ncc(C(=O)C2=C(O)CCCC2=O)c1=O [Compound 12]
[7]; 62 g ai/ha
  Plant response rating: Field Poppy: 98
[7]; 125 g ai/ha
  Plant response rating: Field Poppy: 98
[7]; 16 g ai/ha
  Plant response rating: Field Poppy: 50
[7]; 31 g ai/ha
  Plant response rating: Field Poppy: 80
[8]; 62 g ai/ha
  Plant response rating: Deadnettle: 90
[8]; 125 g ai/ha
  Plant response rating: Deadnettle: 100
[8]; 16 g ai/ha
  Plant response rating: Deadnettle: 35
[8]; 31 g ai/ha
  Plant response rating: Deadnettle: 50
[9]; 62 g ai/ha
  Plant response rating: Kochia: 5
[9]; 125 g ai/ha
  Plant response rating: Kochia: 25
[9]; 16 g ai/ha
  Plant response rating: Kochia: 5
[9]; 31 g ai/ha
  Plant response rating: Kochia: 5
[10]; 62 g ai/ha
  Plant response rating: Oat, Wild: 0
[10]; 125 g ai/ha
  Plant response rating: Oat, Wild: 0
[10]; 16 g ai/ha
  Plant response rating: Oat, Wild: 0
[10]; 31 g ai/ha
  Plant response rating: Oat, Wild: 0
[11]; 62 g ai/ha
  Plant response rating: Russian Thistle: 0
[11]; 16 g ai/ha
  Plant response rating: Russian Thistle: 0
[11]; 31 g ai/ha
  Plant response rating: Russian Thistle: 0
[12]
  Plant response rating: Canarygrass: 20
[13]; 62 g ai/ha
  Plant response rating: Radish, Wild: 0
[13]; 125 g ai/ha
  Plant response rating: Radish, Wild: 0
[13]; 16 g ai/ha
  Plant response rating: Radish, Wild: 0
[13]; 31 g ai/ha
  Plant response rating: Radish, Wild: 0
[14]; 62 g ai/ha
  Plant response rating: Bluegrass: 20
[14]; 125 g ai/ha
  Plant response rating: Bluegrass: 35
[14]; 16 g ai/ha
  Plant response rating: Bluegrass: 0
[14]; 31 g ai/ha
  Plant response rating: Bluegrass: 0
[15]; 62 g ai/ha
  Plant response rating: Barley, Winter: 0
[15]; 125 g ai/ha
  Plant response rating: Barley, Winter: 0
[15]; 16 g ai/ha
  Plant response rating: Barley, Winter: 0
[15]; 31 g ai/ha
  Plant response rating: Barley, Winter: 0

## COc1ccc(-n2c(-c3ccccc3)ncc(C(=O)C3=C(O)CCCC3=O)c2=O)cc1 [Compound 4, 5-[(2-hydroxy-6-oxo-cyclohexen-1-yl)carbonyl]-3-(4-methoxyphenyl)-2-phenyl-4(3H)-pyrimidinone]
[2]; 125 g ai/ha
  Plant response rating, Bulrush, Ricefield, Flood: 40
[2]; 250 g ai/ha
  Plant response rating, Bulrush, Ricefield, Flood: 80
[2]; 500 g ai/ha
  Plant response rating, Bulrush, Ricefield, Flood: 80
[3]; 125 g ai/ha
  Plant response rating, Ducksalad, Flood: 90
[3]; 250 g ai/ha
  Plant response rating, Ducksalad, Flood: 100
[3]; 500 g ai/ha
  Plant response rating, Ducksalad, Flood: 100
[4]; 125 g ai/ha
  Plant response rating, Sedge, Umbrella, Flood: 90
[4]; 250 g ai/ha
  Plant response rating, Sedge, Umbrella, Flood: 95
[4]; 500 g ai/ha
  Plant response rating, Sedge, Umbrella, Flood: 100
[5]; 125 g ai/ha
  Plant response rating, Rice, Transplanted, Flood: 0
[5]; 250 g ai/ha
  Plant response rating, Rice, Transplanted, Flood: 0
[5]; 500 g ai/ha
  Plant response rating, Rice, Transplanted, Flood: 15
[6]; 125 g ai/ha
  Plant response rating, Rice, Water Seeded, Flood: 10
[6]; 250 g ai/ha
  Plant response rating, Rice, Water Seeded, Flood: 20
[6]; 500 g ai/ha
  Plant response rating, Rice, Water Seeded, Flood: 50

## O=C1CCCC(O)=C1C(=O)c1cnc(-c2ccccc2)n(Cc2ccccc2)c1=O [Compound 17, 5-[(2-hydroxy-6-oxo-1-cyclohexen-1-yl)carbonyl]-2-phenyl-3-(phenylmethyl)-4(3H)-pyrimidinone]
other
  melting point: 57 to 58 °C

## COCCn1c(-c2cccc(C)c2)ncc(C(=O)C2=C(O)C3CCC(C3)C2=O)c1=O (stereo not drawn) [Compound 233]
[1]; [16]
  Plant response rating, Crabgrass, Naked: 50
[1]; [17]
  Plant response rating, Crabgrass, Naked: 60
[1]; [18]
  Plant response rating, Crabgrass, Naked: 70
[1]; [23]
  Plant response rating, Crabgrass, Naked: 30
[1]; [19]
  Plant response rating, Crabgrass, Naked: 0
[1]; [20]
  Plant response rating, Crabgrass, Naked: 0
[1]; [21]
  Plant response rating, Crabgrass, Naked: 65
[1]; [22]
  Plant response rating, Crabgrass, Naked: 65
